Tested on: MDA-MB-468 spheroids with HUVEC/MSC, viability
Assay: Anticancer human tumor MDA-MB-468 cell line growth inhibition [PI3K];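 note: spheroids exposed to agents for seven days before readout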;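 for viability, T/C: 100% = DMSO vehicle control viability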
Conditions: for viability, T/C: stronger effect = lower value
Procedure, shortened: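 Tumor cells were combined with HUVEC and MSCs into spheroids, then dosed with PI3K-inhibitor combinations over half-log ranges capped near clinical Cmax or 10 microM.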

[1] = curve of first compound, second compound 0.0316 µM
[2] = curve of first compound, second compound 0.1 µM
[3] = curve of first compound, second compound 0.316 µM
[4] = curve of first compound, second compound 1 µM
[5] = second compound 0.0316 µM, first compound 0.0316 µM
[6] = second compound 0.0316 µM, first compound 0.1 µM
[7] = second compound 0.0316 µM, first compound 0.316 µM
[8] = second compound 0.0316 µM, first compound 1 µM
[9] = second compound 0.0316 µM, first compound 3.16 µM
[10] = second compound 0.0316 µM, first compound 10 µM
[11] = second compound 0.1 µM, first compound 0.0316 µM
[12] = second compound 0.1 µM, first compound 0.1 µM
[13] = second compound 0.1 µM, first compound 0.316 µM
[14] = second compound 0.1 µM, first compound 1 µM
[15] = second compound 0.1 µM, first compound 3.16 µM
[16] = second compound 0.1 µM, first compound 10 µM
[17] = second compound 0.316 µM, first compound 0.0316 µM
[18] = second compound 0.316 µM, first compound 0.1 µM
[19] = second compound 0.316 µM, first compound 0.316 µM
[20] = second compound 0.316 µM, first compound 1 µM
[21] = second compound 0.316 µM, first compound 3.16 µM
[22] = second compound 0.316 µM, first compound 10 µM
[23] = second compound 1 µM, first compound 0.0316 µM
[24] = second compound 1 µM, first compound 0.1 µM
[25] = second compound 1 µM, first compound 0.316 µM
[26] = second compound 1 µM, first compound 1 µM
[27] = second compound 1 µM, first compound 3.16 µM
[28] = second compound 1 µM, first compound 10 µM
[29] = curve of first compound, second compound 3.16 µM
[30] = curve of first compound, second compound 10 µM

## CNC(=O)c1ccc(N2C(=S)N(c3ccc(C#N)c(C(F)(F)F)c3)C(=O)C2(C)C)cc1F + CC(Nc1ccc2c(c1)OCCn1cc(N3C(=O)OCC3C(F)F)nc1-2)C(N)=O
Curve of first compound, second compound 0.00316 µM
  IC50: > 10 µM
Curve of first compound, second compound 0.01 µM
  IC50: > 10 µM
[1]
  IC50: > 10 µM
[2]
  IC50: > 10 µM
[3]
  IC50: > 10 µM
[4]
  IC50: > 10 µM
Second compound 0.00316 µM, first compound 0.0316 µM
  viability, T/C: 95.2%
Second compound 0.00316 µM, first compound 0.1 µM
  viability, T/C: 94.6%
Second compound 0.00316 µM, first compound 0.316 µM
  viability, T/C: 94.9%
Second compound 0.00316 µM, first compound 1 µM
  viability, T/C: 98.9%
Second compound 0.00316 µM, first compound 3.16 µM
  viability, T/C: 94.3%
Second compound 0.00316 µM, first compound 10 µM
  viability, T/C: 76.7%
Second compound 0.01 µM, first compound 0.0316 µM
  viability, T/C: 100%
Second compound 0.01 µM, first compound 0.1 µM
  viability, T/C: 107%
Second compound 0.01 µM, first compound 0.316 µM
  viability, T/C: 105%
Second compound 0.01 µM, first compound 1 µM
  viability, T/C: 107%
Second compound 0.01 µM, first compound 3.16 µM
  viability, T/C: 82.3%
Second compound 0.01 µM, first compound 10 µM
  viability, T/C: 76.5%
[5]
  viability, T/C: 90.7%
[6]
  viability, T/C: 105%
[7]
  viability, T/C: 80.5%
[8]
  viability, T/C: 98.5%
[9]
  viability, T/C: 80.8%
[10]
  viability, T/C: 62.2%
[11]
  viability, T/C: 85.9%
[12]
  viability, T/C: 84.1%
[13]
  viability, T/C: 83.5%
[14]
  viability, T/C: 85.8%
[15]
  viability, T/C: 82.1%
[16]
  viability, T/C: 56.4%
[17]
  viability, T/C: 95.6%
[18]
  viability, T/C: 84.6%
[19]
  viability, T/C: 75.8%
[20]
  viability, T/C: 95.2%
[21]
  viability, T/C: 94%
[22]
  viability, T/C: 57.1%
[23]
  viability, T/C: 88%
[24]
  viability, T/C: 76.4%
[25]
  viability, T/C: 79.9%
[26]
  viability, T/C: 79.9%
[27]
  viability, T/C: 73.3%
[28]
  viability, T/C: 57.1%

## CC(C)n1nc(-c2ccc3oc(N)nc3c2)c2c(N)ncnc21
Compound 0.000316 µM
  viability, T/C: 101% [middle of 4 runs]
Compound 0.00316 µM
  viability, T/C: 93% [middle of 4 runs]
Compound 0.01 µM
  viability, T/C: 81.4% [middle of 4 runs]
Compound 0.0316 µM
  viability, T/C: 64.6% [middle of 4 runs]
Compound 0.1 µM
  viability, T/C: 19.3% [middle of 4 runs]
Curve of compound
  IC50: 44.4 nM [middle of 4 runs]

## Cn1cnc2c(F)c(Nc3ccc(Br)cc3Cl)c(C(=O)NOCCO)cc21 + Cc1nc(NC(=O)N2CCCC2C(N)=O)sc1-c1ccnc(C(C)(C)C(F)(F)F)c1
[1]
  IC50: > 3 µM
[2]
  IC50: 1.81 µM
[3]
  IC50: 0.949 µM
[4]
  IC50: 0.385 µM
[29]
  IC50: 0.0181 µM
[30]
  IC50: < 0.00949 µM
Second compound 0.0316 µM, first compound 0.00949 µM
  viability, T/C: 75.3%
Second compound 0.0316 µM, first compound 0.03 µM
  viability, T/C: 80%
Second compound 0.0316 µM, first compound 0.0949 µM
  viability, T/C: 76.9%
Second compound 0.0316 µM, first compound 0.3 µM
  viability, T/C: 94.1%
Second compound 0.0316 µM, first compound 0.949 µM
  viability, T/C: 69.4%
Second compound 0.0316 µM, first compound 3 µM
  viability, T/C: 50.8%
Second compound 0.1 µM, first compound 0.00949 µM
  viability, T/C: 82.7%
Second compound 0.1 µM, first compound 0.03 µM
  viability, T/C: 77.6%
Second compound 0.1 µM, first compound 0.0949 µM
  viability, T/C: 77.8%
Second compound 0.1 µM, first compound 0.3 µM
  viability, T/C: 86.5%
Second compound 0.1 µM, first compound 0.949 µM
  viability, T/C: 60.7%
Second compound 0.1 µM, first compound 3 µM
  viability, T/C: 41.5%
Second compound 0.316 µM, first compound 0.00949 µM
  viability, T/C: 98.5%
Second compound 0.316 µM, first compound 0.03 µM
  viability, T/C: 82.2%
Second compound 0.316 µM, first compound 0.0949 µM
  viability, T/C: 69.7%
Second compound 0.316 µM, first compound 0.3 µM
  viability, T/C: 74.5%
Second compound 0.316 µM, first compound 0.949 µM
  viability, T/C: 46.9%
Second compound 0.316 µM, first compound 3 µM
  viability, T/C: 34.2%
Second compound 1 µM, first compound 0.00949 µM
  viability, T/C: 66.9%
Second compound 1 µM, first compound 0.03 µM
  viability, T/C: 69.4%
Second compound 1 µM, first compound 0.0949 µM
  viability, T/C: 57.2%
Second compound 1 µM, first compound 0.3 µM
  viability, T/C: 54.2%
Second compound 1 µM, first compound 0.949 µM
  viability, T/C: 40.1%
Second compound 1 µM, first compound 3 µM
  viability, T/C: 25.6%
Second compound 3.16 µM, first compound 0.00949 µM
  viability, T/C: 53.9%
Second compound 3.16 µM, first compound 0.03 µM
  viability, T/C: 47.8%
Second compound 3.16 µM, first compound 0.0949 µM
  viability, T/C: 37.5%
Second compound 3.16 µM, first compound 0.3 µM
  viability, T/C: 33.8%
Second compound 3.16 µM, first compound 0.949 µM
  viability, T/C: 21.2%
Second compound 3.16 µM, first compound 3 µM
  viability, T/C: 12.4%
Second compound 10 µM, first compound 0.00949 µM
  viability, T/C: 28.8%
Second compound 10 µM, first compound 0.03 µM
  viability, T/C: 14.7%
Second compound 10 µM, first compound 0.0949 µM
  viability, T/C: 15.8%
Second compound 10 µM, first compound 0.3 µM
  viability, T/C: 12.1%
Second compound 10 µM, first compound 0.949 µM
  viability, T/C: 7.32%
Second compound 10 µM, first compound 3 µM
  viability, T/C: 4.97%

## C[C@@H](NC(=O)c1ncnc(N)c1Cl)c1ncc(C(=O)Nc2cc(C(F)(F)F)c(Cl)cn2)s1 + CC(Nc1ncnc2nc[nH]c12)c1cc2cccc(Cl)c2c(=O)n1-c1ccccc1
[1]
  IC50: > 10 µM
[2]
  IC50: > 10 µM
[3]
  IC50: > 10 µM
[4]
  IC50: > 10 µM
[29]
  IC50: > 10 µM
[30]
  IC50: < 0.0316 µM
[5]
  viability, T/C: 107%
[6]
  viability, T/C: 114%
[7]
  viability, T/C: 92.5%
[8]
  viability, T/C: 109%
[9]
  viability, T/C: 91.3%
[10]
  viability, T/C: 94.9%
[11]
  viability, T/C: 83%
[12]
  viability, T/C: 94.3%
[13]
  viability, T/C: 93.3%
[14]
  viability, T/C: 89%
[15]
  viability, T/C: 93.5%
[16]
  viability, T/C: 83.7%
[17]
  viability, T/C: 84.8%
[18]
  viability, T/C: 76.8%
[19]
  viability, T/C: 83.1%
[20]
  viability, T/C: 82%
[21]
  viability, T/C: 75.5%
[22]
  viability, T/C: 83.7%
[23]
  viability, T/C: 70%
[24]
  viability, T/C: 65.8%
[25]
  viability, T/C: 75.3%
[26]
  viability, T/C: 81.8%
[27]
  viability, T/C: 75.2%
[28]
  viability, T/C: 64.5%
Second compound 3.16 µM, first compound 0.0316 µM
  viability, T/C: 61.8%
Second compound 3.16 µM, first compound 0.1 µM
  viability, T/C: 60.2%
Second compound 3.16 µM, first compound 0.316 µM
  viability, T/C: 63.7%
Second compound 3.16 µM, first compound 1 µM
  viability, T/C: 55.7%
Second compound 3.16 µM, first compound 3.16 µM
  viability, T/C: 61.8%
Second compound 3.16 µM, first compound 10 µM
  viability, T/C: 58.9%
Second compound 10 µM, first compound 0.0316 µM
  viability, T/C: 42.3%
Second compound 10 µM, first compound 0.1 µM
  viability, T/C: 40.6%
Second compound 10 µM, first compound 0.316 µM
  viability, T/C: 46.1%
Second compound 10 µM, first compound 1 µM
  viability, T/C: 53%
Second compound 10 µM, first compound 3.16 µM
  viability, T/C: 41.7%
Second compound 10 µM, first compound 10 µM
  viability, T/C: 39.2%

Reference: PubChem BioAssay AID1963960 (Molecular Pharmacology Branch, DTP, NCI, 2024)
